Experimental data taken from patent US10988433B2, “Cyclohexyl GPR40 agonists for the treatment of type II diabetes” (Janssen Pharmaceutica NV, priority 2016, dated 2021).

Legend:
[1] = target: T1, human GPR40 (Homo sapiens, UniProt O14842); assay: GPR40 calcium flux assay, HEK293 cells stably expressing human GPR40; assay type: cell-based; conditions: transfected HEK293 cells stably expressing human GPR40, Fluo 8 dye, read-out: hGPR40 Ca2+ Assay EC50
T1 construct: expressed in transfected cells
Experimental: (§1) Compounds were tested in a calcium flux assay using transfected HEK293 cells stably expressing either human GPR40 or rat GPR40. Human GPR40 expressing cells were cultured in DMEM-High Glucose media supplemented with 10% fetal bovine serum, 1×L-Glutamine, 1×Penicillin/Streptomycin and 500 μg/mL G418. Rat GPR40 expressing cells were cultured in DMEM-High Glucose media supplemented with 10% fetal bovine serum and 1 μg/mL puromycin. Cells were plated into poly-D-lysine coated 384-well plates and cultured overnight in a 37° C. humidified tissue culture incubator under 5% CO2/[…] atmosphere. On the day of the experiment, the culture media was replaced with assay buffer (HBSS, 20 mM HEPES, 0.1% BSA) and the cells incubated at 37° C. for 1 h. Calcium-sensitive fluorescent dye (Fluo 8 No-Wash Calcium Dye, ABD Bioquest) was then added and the cells incubated for another 30 min at 37° C. followed by 15 min at room temperature while protected from the light. The cell plate and a plate of diluted compounds of Formula (I) were loaded into a fluorescent plate reader that added compounds onto the cells while measuring the fluorescence intensity of each well. The plate reader recorded fluorescence intensity at 1 second intervals for 8 min and provided the data for analysis in an Excel format. EC50 values were calculated using Prism (GraphPad) software.

[2] = test system: Male SD rats; assay: Oral Glucose Tolerance Test, Version A; assay type: in vivo, rat; conditions: Assay Version A: fasted male SD rats, dosed 30 min prior to oGTT (glucose 2 g/kg po); blood glucose AUC t=0 to 120 min vs vehicle
Experimental: Male SD rats (200-250 g) were housed 2 per cage in a temperature-controlled room with a 12-hour light/dark cycle. They were allowed ad libitum access to water and fed with normal rodent chow. The night before the oral glucose tolerance test (oGTT), the rats were transferred to clean cages and fasted overnight. On the morning of the oGTT, the rats were weighed and randomized into groups based on fasted blood glucose and body weight. Rats were dosed with vehicle (0.5% methocel) or compounds thirty min prior to the oGTT (glucose, 2 g/kg, po). Blood was collected from the tail vein at 0, 10, 30, 60 and 120 minutes after glucose challenge to measure blood glucose; plasma was used to determine insulin levels. The area under the curve for blood glucose excursion was calculated from t=0 to t=120 minutes. Percent lowering of glucose was calculated from the AUC data with respect to the vehicle-treated group.

[3] = target: T2, rat GPR40 (Rattus norvegicus, UniProt Q8K3T4); assay: GPR40 calcium flux assay, HEK293 cells stably expressing rat GPR40; assay type: cell-based; conditions: transfected HEK293 cells stably expressing rat GPR40, Fluo 8 dye, read-out: rGPR40 Ca2+ Assay EC50
T2 construct: expressed in transfected cells
Experimental: as §1

T1 sequence (O14842 whole entry): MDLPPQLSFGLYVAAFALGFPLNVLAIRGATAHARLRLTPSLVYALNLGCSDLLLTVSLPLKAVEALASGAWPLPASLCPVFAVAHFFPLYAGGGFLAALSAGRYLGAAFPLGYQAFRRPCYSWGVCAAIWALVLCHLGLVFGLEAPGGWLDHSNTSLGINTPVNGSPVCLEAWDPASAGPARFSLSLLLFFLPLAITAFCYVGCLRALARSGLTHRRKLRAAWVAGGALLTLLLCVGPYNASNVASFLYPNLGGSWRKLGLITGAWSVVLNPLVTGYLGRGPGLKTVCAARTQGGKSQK
T2 sequence (Q8K3T4 whole entry): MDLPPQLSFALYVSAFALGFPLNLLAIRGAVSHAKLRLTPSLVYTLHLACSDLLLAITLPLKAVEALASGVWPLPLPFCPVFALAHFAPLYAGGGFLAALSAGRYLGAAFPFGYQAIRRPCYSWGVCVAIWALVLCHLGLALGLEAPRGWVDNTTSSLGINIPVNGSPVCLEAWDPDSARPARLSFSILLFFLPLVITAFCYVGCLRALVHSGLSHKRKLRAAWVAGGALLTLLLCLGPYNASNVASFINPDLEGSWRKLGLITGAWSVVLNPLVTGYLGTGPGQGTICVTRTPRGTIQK

| Structure (SMILES) | EC50 [1] | EC50 [3] | Percent Lowering of Glucose (AUC compound vs. AUC Vehicle) [2] |
| --- | --- | --- | --- |
| CC(F)(C(=O)O)[C@H](c1cccc(OCC2CCC(c3cc(F)ncc3F)CC2)c1)C1CC1 (mixture of isomers) [Cpd 67, (3S)-3-Cyclopropyl-3-(3-((4-(2,5-difluoropyridin-4-yl)cyclohexyl)methoxy)phenyl)-2-fluoro-2-methylpropanoic acid] | 1.7 nM | 12 nM | – |
| COc1ccc(F)c([C@H]2CC[C@@H](COc3cc(C(CC(=O)O)C4CC4)ccn3)CC2)c1 (stereo partly drawn) [Cpd 5, 3-Cyclopropyl-3-(2-(((1 s,4s)-4-(2-fluoro-5-methoxyphenyl)cyclohexyl)methoxy)pyridin-4-yl)propanoic acid] | 75.6 nM | 146 nM | – |
| COc1ccc(F)c([C@]2(OC)CC[C@H](COc3cccc([C@@H](CC(=O)O)C4CC4)c3)CC2)c1 [Cpd 12, (S)-3-Cyclopropyl-3-(3-(((1r,4S)-4-(2-fluoro-5-methoxyphenyl)-4-methoxycyclohexyl)methoxy)phenyl)propanoic acid] | 13.8 nM | 152 nM | – |
| COc1cc([C@H]2CC[C@H](COc3cc([C@H](CC(=O)O)C4CC4)ccn3)CC2)c(F)cn1 [Cpd 24, (R)-3-Cyclopropyl-3-(2-(((1r,4R)-4-(5-fluoro-2-methoxypyridin-4-yl)cyclohexyl)methoxy)pyridin-4-yl)propanoic acid] | 8.4 nM | 20.7 nM | – |
| COc1cc([C@H]2CC[C@H](COc3cccc([C@H](C4CC4)C(C)(F)C(=O)O)c3)CC2)c(F)cn1 (stereo partly drawn) [Cpd 61] | 0.25 nM | 0.53 nM | – |
| COc1cc([C@H]2CC[C@@H](COc3cccc([C@@H](CC(=O)O)C4CC4)c3)CC2)c(F)cn1 [Cpd 10, (S)-3-Cyclopropyl-3-(3-(((1s,4R)-4-(5-fluoro-2-methoxypyridin-4-yl)cyclohexyl)methoxy)phenyl)propanoic acid] | 26.9 nM | 76 nM | – |
| COc1ccc(F)c([C@H]2CC[C@H](/C=C/c3cccc([C@H](C4CC4)C(C)(F)C(=O)O)c3)CC2)c1 (stereo partly drawn) [Cpd 72, (3S)-3-Cyclopropyl-2-fluoro-3-(3-((E)-2-((1r,4S)-4-(2-fluoro-5-methoxyphenyl)cyclohexyl)vinyl)phenyl)-2-methylpropanoic acid] | 1.88 nM | 2.48 nM | – |
| COc1ccnc(C2CCC(COc3cc([C@@H](CC(=O)O)C4CC4)ccn3)CC2)n1 (stereo partly drawn) [Cpd 49, (S)-3-Cyclopropyl-3-(2-((4-(4-methoxypyrimidin-2-yl)cyclohexyl)methoxy)pyridin-4-yl)propanoic acid] | 244 nM | 1110 nM | – |
| COc1cc([C@H]2CC[C@H](COc3cc(C(CC(=O)O)C4CC4)ccn3)CC2)c(F)cn1 (stereo partly drawn) [Cpd 8, 3-Cyclopropyl-3-(2-(((1r,4r)-4-(5-fluoro-2-methoxypyridin-4-yl)cyclohexyl)methoxy)pyridin-4-yl)propanoic acid] | 0.5 nM | 1.4 nM | – |
| COc1ccc(F)c([C@H]2CC[C@H](COc3cncc(C(CC(=O)O)C4CC4)c3)CC2)c1 (stereo partly drawn) [Cpd 21, 3-Cyclopropyl-3-(5-(((1r,4r)-4-(2-fluoro-5-methoxyphenyl)cyclohexyl)methoxy)pyridin-3-yl)propanoic acid] | 12 nM | 35.3 nM | – |
| COc1cccc(C2CCC(COc3cccc([C@H](C4CC4)C(C)(F)C(=O)O)c3)CC2)c1 (stereo partly drawn) [Cpd 66, (3S)-3-Cyclopropyl-2-fluoro-3-(3-((4-(3-methoxyphenyl)cyclohexyl)methoxy)phenyl)-2-methylpropanoic acid] | 0.25 nM | 0.4 nM | – |

More lines, main results first:

| EC50 [1] | EC50 [3] | Structure (SMILES) | Percent Lowering of Glucose (AUC compound vs. AUC Vehicle) [2] |
| --- | --- | --- | --- |
| 0.8 nM | 3.4 nM | COc1ccc(F)c([C@H]2CC[C@H](COc3cccc([C@@H](CC(=O)O)C4CC4)c3)CC2)c1 [Cpd 2, (S)-3-Cyclopropyl-3-(3-(((1r,4 S)-4-(2-fluoro-5-methoxyphenyl)cyclohexyl)methoxy)phenyl) propanoic acid] | 33% |
| 36.2 nM | 105 nM | COc1ccc(F)c([C@H]2CC[C@@H](COc3cccc([C@@H](CC(=O)O)C4CC4)c3)CC2)c1 [Cpd 1, (S)-3-Cyclopropyl-3-(3-(((1s,4R)-4-(2-fluoro-5-methoxyphenyl)cyclohexyl)methoxy)phenyl) propanoic acid] | 11% |
| 0.59 nM | 1.75 nM | CCc1ccc(Cl)c(C2CCC(COc3cccc([C@H](C4CC4)C(C)(F)C(=O)O)c3)CC2)c1 (stereo partly drawn) [Cpd 65, (3S)-3-(3-((4-(2-Chloro-5-ethylphenyl)cyclohexyl)methoxy)phenyl)-3-cyclopropyl-2-fluoro-2-methylpropanoic acid] | – |
| 0.2 nM | 0.4 nM | COc1ccc(F)c([C@H]2CC[C@H](COc3cccc([C@H](C4CC4)[C@H](C)C(=O)O)c3)CC2)c1 [Cpd 52, (2S,3R)-3-cyclopropyl-3-(3-(((1r,4R)-4-(2-fluoro-5-methoxyphenyl)cyclohexyl)methoxy)phenyl)-2-methylpropanoic acid] | – |
| 2.1 nM | 18.4 nM | COc1ccc(F)c([C@]2(OC)CC[C@@H](COc3cccc([C@@H](CC(=O)O)C4CC4)c3)CC2)c1 [Cpd 11, (S)-3-Cyclopropyl-3-(3-(((1s,4R)-4-(2-fluoro-5-methoxyphenyl)-4-methoxycyclohexyl)methoxy)phenyl)propanoic acid] | – |
| 0.44 nM | 8.93 nM | C[C@](F)(C(=O)O)[C@H](c1cccc(OCC2CCC(c3cc(F)ccc3F)CC2)c1)C1CC1 (stereo partly drawn) [Cpd 75, (2R,3S)-3-Cyclopropyl-3-(3-((4-(2,5-difluorophenyl)cyclohexyl)methoxy)phenyl)-2-fluoro-2-methylpropanoic acid] | – |
| 18 nM | 43 nM | COc1ccc(F)c([C@H]2CC[C@@H](COc3cc([C@H](CC(=O)O)C4CC4)ccn3)CC2)c1 [Cpd 41, (R)-3-Cyclopropyl-3-(2-(((1s,4S)-4-(2-fluoro-5-methoxyphenyl)cyclohexyl)methoxy)pyridin-4-yl)propanoic acid] | – |
| 26.1 nM | 54.2 nM | COc1cc([C@H]2CC[C@H](COc3ccnc(C(CC(=O)O)C4CC4)c3)CC2)c(F)cn1 (stereo partly drawn) [Cpd 31, 3-Cyclopropyl-3-(4-(((1r,4r)-4-(5-fluoro-2-methoxypyridin-4-yl)cyclohexyl)methoxy)pyridin-2-yl)propanoic acid] | – |
| 0.7 nM | 2.6 nM | COc1ccc(F)c([C@H]2CC[C@H](COc3cc(C(CC(=O)O)C4CC4)ccn3)CC2)c1 (stereo partly drawn) [Cpd 4, 3-Cyclopropyl-3-(2-(((1r,4r)-4-(2-fluoro-5-methoxyphenyl)cyclohexyl)methoxy)pyridin-4-yl) propanoic acid] | – |
| 0.27 nM | 2.22 nM | CCc1ccc(F)c([C@H]2CC[C@H](COc3cccc([C@H](C4CC4)C(C)(F)C(=O)O)c3)CC2)c1 (stereo partly drawn) [Cpd 68, (3S)-3-Cyclopropyl-3-(3-(((1r,4S)-4-(5-ethyl-2-fluorophenyl)cyclohexyl)methoxy)phenyl)-2-fluoro-2-methylpropanoic acid] | – |
| 17.9 nM | 40.9 nM | COc1ccc(F)c(C2CCC(COc3cccc([C@@H](CC(=O)O)C4CC4)c3)C(CC(C)C)C2)c1 (stereo partly drawn) [Cpd 29, (3S)-3-Cyclopropyl-3-(3-((4-(2-fluoro-5-methoxyphenyl)-2-isobutylcyclohexyl)methoxy)phenyl)propanoic acid] | – |
| 0.19 nM | 0.56 nM | COc1ccc(Cl)c(C2CCC(COc3cccc([C@H](C4CC4)[C@@](C)(F)C(=O)O)c3)CC2)c1 (stereo partly drawn) [Cpd 64, (2R,3S)-3-(3-((4-(2-Chloro-5-methoxyphenyl)cyclohexyl)methoxy)phenyl)-3-cyclopropyl-2-fluoro-2-methylpropanoic acid] | – |
| 82.5 nM | 211 nM | COc1ccc(F)c([C@]2(F)CC[C@H](COc3cccc([C@@H](CC(=O)O)C4CC4)c3)CC2)c1 [Cpd 19, (S)-3-Cyclopropyl-3-(3-(((1r,4S)-4-fluoro-4-(2-fluoro-5-methoxyphenyl)cyclohexyl)methoxy)phenyl)propanoic acid] | – |
| 687 nM | 1320 nM | COc1ccc(F)c([C@H]2CC[C@@H](COc3cccc([C@H](CC(=O)O)C4CC4)c3)CC2)c1 [Cpd 37, (R)-3-Cyclopropyl-3-(3-(((1s,4S)-4-(2-fluoro-5-methoxyphenyl)cyclohexyl)methoxy)phenyl)propanoic acid] | – |
| 3 nM | 14.4 nM | COc1ccc(F)c([C@H]2CC[C@H](COc3cccc(C(CC(=O)O)C4CC4)c3)CC2)c1 (mixture of isomers) [Cpd 56, 3-Cyclopropyl-3-(3-(((1r,4r)-4-(2-fluoro-5-methoxyphenyl)cyclohexyl)methoxy)phenyl) propanoic acid] | – |
